Measurements from ChEMBL document CHEMBL5724914, “Linking interpersonal differences in gut microbiota composition and drug biotransformation activity” (2024).

Experiments:
[1] = The drug is tested on Z-003 corresponding to pig gut metagenome with ENA study accession number: PRJEB37062 and ENA sample accession number: ERS12561803 for biotransformation under anaerobic condition. The drug concentrations were measured over 9 timepoints collected between 0 and 24 hours of incubation by liquid-chromatography-coupled mass spectrometry (LC–MS); conditions: 2 µM
[2] = The drug is tested on WLS-170 corresponding to human gut metagenome with ENA study accession number: PRJEB37062 and ENA sample accession number: ERS12561762 for biotransformation under anaerobic condition. The drug concentrations were measured over 9 timepoints collected between 0 and 24 hours of incubation by liquid-chromatography-coupled mass spectrometry (LC–MS); conditions: 2 µM
[3] = The drug is tested on WLS-027 corresponding to human gut metagenome with ENA study accession number: PRJEB37062 and ENA sample accession number: ERS12561744 for biotransformation under anaerobic condition. The drug concentrations were measured over 9 timepoints collected between 0 and 24 hours of incubation by liquid-chromatography-coupled mass spectrometry (LC–MS); conditions: 2 µM
[4] = The drug is tested on Z-021 corresponding to metagenome with ENA study accession number: PRJEB37062 and ENA sample accession number: ERS12561820 for biotransformation under anaerobic condition. The drug concentrations were measured over 9 timepoints collected between 0 and 24 hours of incubation by liquid-chromatography-coupled mass spectrometry (LC–MS); conditions: 2 µM
[5] = human gut metagenome, 24 h, 2 µM
[6] = human gut metagenome, 24 h, 2 µM; remark: listed apart in the source
[7] = human gut metagenome, 24 h, 2 µM; remark: listed apart in the source
[8] = human gut metagenome, 24 h, 2 µM; remark: listed apart in the source
[9] = The drug is tested on Z-029 corresponding to rat gut metagenome with ENA study accession number: PRJEB37062 and ENA sample accession number: ERS12561828 for biotransformation under anaerobic condition. The drug concentrations were measured over 9 timepoints collected between 0 and 24 hours of incubation by liquid-chromatography-coupled mass spectrometry (LC–MS); conditions: 2 µM
Further: call rule not given here.

Row | SMILES | Bacterial Biotransformation [1] | Bacterial Biotransformation [2] | Bacterial Biotransformation [3] | Bacterial Biotransformation [4] | Bacterial Biotransformation [5] | Bacterial Biotransformation [6] | Bacterial Biotransformation [7] | Bacterial Biotransformation [8] | Bacterial Biotransformation [9]
1 | COc1ccc2cc([C@H](C)C(=O)O)ccc2c1 [NAPROXEN] | Compound NOT metabolized | Compound metabolized | Compound metabolized | Compound NOT metabolized | Compound metabolized | Compound metabolized | Compound metabolized | Compound NOT metabolized | Compound NOT metabolized
2 | C[C@]12CCC(=O)C=C1[C@@H]1C[C@@H]1[C@H]1[C@@H]3[C@@H]4C[C@@H]4[C@@]4(CCC(=O)O4)[C@@]3(C)CC[C@@H]12 [DROSPIRENONE] | Compound metabolized | Compound metabolized | Compound metabolized | Compound metabolized | Compound metabolized | Compound metabolized | Compound metabolized | Compound metabolized | Compound NOT metabolized
3 | CCN1CCCC1CNC(=O)c1cc(S(=O)(=O)CC)c(N)cc1OC (stereo not drawn) [AMISULPRIDE] | Compound metabolized | Compound metabolized | Compound NOT metabolized | Compound NOT metabolized | Compound NOT metabolized | Compound metabolized | Compound metabolized | Compound NOT metabolized | Compound NOT metabolized
4 | Nc1nc(N)nc(-c2cc(Cl)ccc2Cl)n1.O=C(O)/C=C\C(=O)O [IRSOGLADINE MALEATE] | Compound NOT metabolized | Compound NOT metabolized | Compound NOT metabolized | Compound NOT metabolized | Compound NOT metabolized | Compound NOT metabolized | Compound metabolized | Compound NOT metabolized | Compound NOT metabolized
5 | O=C(O)c1cc(/N=N/c2ccc(S(=O)(=O)Nc3ccccn3)cc2)ccc1O [SULFASALAZINE] | Compound metabolized | Compound metabolized | Compound metabolized | Compound metabolized | Compound metabolized | Compound metabolized | Compound metabolized | Compound metabolized | Compound metabolized
6 | CC(C)NCC(O)COc1ccc(CC(N)=O)cc1 (stereo not drawn) [ATENOLOL] | Compound NOT metabolized | Compound metabolized | Compound NOT metabolized | Compound NOT metabolized | Compound NOT metabolized | Compound NOT metabolized | Compound metabolized | Compound NOT metabolized | Compound NOT metabolized
7 | CN(CCOc1ccc(CC2SC(=O)NC2=O)cc1)c1ccccn1.O=C(O)/C=C\C(=O)O (stereo not drawn) [ROSIGLITAZONE MALEATE] | Compound NOT metabolized | Compound metabolized | Compound metabolized | Compound NOT metabolized | Compound NOT metabolized | Compound NOT metabolized | Compound metabolized | Compound NOT metabolized | Compound NOT metabolized
8 | C#C[C@]1(OC(C)=O)CC[C@H]2[C@@H]3CCC4=C/C(=N/O)CC[C@@H]4[C@H]3CC[C@@]21CC [NORGESTIMATE] | Compound NOT metabolized | Compound metabolized | Compound metabolized | Compound NOT metabolized | Compound metabolized | Compound NOT metabolized | Compound metabolized | Compound NOT metabolized | Compound metabolized
9 | CCS(=O)(=O)CCn1c([N+](=O)[O-])cnc1C [TINIDAZOLE] | Compound metabolized | Compound metabolized | Compound metabolized | Compound metabolized | Compound metabolized | Compound metabolized | Compound metabolized | Compound metabolized | Compound metabolized
10 | N=C(N)NC(=O)Cc1c(Cl)cccc1Cl [GUANFACINE] | Compound NOT metabolized | Compound NOT metabolized | Compound NOT metabolized | Compound NOT metabolized | Compound NOT metabolized | Compound NOT metabolized | Compound NOT metabolized | Compound NOT metabolized | Compound NOT metabolized
11 | CC(C)c1c(CN(C)C(C)Cc2ccccc2)n(C)n(-c2ccccc2)c1=O (stereo not drawn) [FAMPROFAZONE] | Compound metabolized | Compound metabolized | Compound metabolized | Compound metabolized | Compound metabolized | Compound metabolized | Compound metabolized | Compound metabolized | Compound NOT metabolized
12 | COc1ccc(/C=C/C(=O)Nc2ccccc2C(=O)O)cc1OC | Compound metabolized | Compound NOT metabolized | Compound metabolized | Compound metabolized | Compound NOT metabolized | Compound NOT metabolized | Compound metabolized | Compound NOT metabolized | Compound NOT metabolized
